Assay results from patent US20150374673A1, “Combination Therapy for the Treatment of Nosocomial Pneumonia” (priority 2013, published 2015).
Where two headings read alike, the source gives them in different places. Values belong to the compound of their own block, whether it stands above or below them.

How the values were obtained:
S. aureus [1] = assay: Initial MIC, microbroth dilution (CLSI), avibactam 4 mg/L; format: cell-based
Text: (§1) All MIC determinations including those performed in the checkerboard assay were done in cation-adjusted Mueller-Hinton broth (purchased from Becton Dickinson, Oxford UK). […]

E. faecalis = assay: as above; format: cell-based; conditions: Enterococcus faecalis
Text: as §1

E. coli = assay: as above; format: cell-based
Text: as §1

E. cloacae = assay: as above; format: cell-based
Text: as §1

K. pneumoniae = assay: as above; format: cell-based
Procedure: (§2) All MIC determinations including those performed in the checkerboard assay were done in cation-adjusted Mueller-Hinton broth (purchased from Becton Dickinson, Oxford UK).
(§3) Initial MIC data were determined by microbroth dilution methods as recommended by CLSI (2012b). Checkerboards were made in accordance with the method given by Pillai et. al., ? Antimicrobial Combinations in Antibiotics, LABORATORY MEDICINE (Lorian Ed., 3rd Ed. (2003)) p. 365-440 as per standard microbroth dilution tests but with agents in combination. […] A final avibactam concentration of 4 mg/L was used throughout the study. Antibacterial agents were combined into microtitre plates using the Evolution III liquid handling system.

P. aeruginosa = assay: as above; format: cell-based
Procedure: as §2, §3

S. aureus [2] = assay: MIC, CLSI broth microdilution in CAMHB with 0-10% pulmonary surfactant (avibactam fixed at 4 μg/mL in combination); format: cell-based, Staphylococcus aureus; conditions: for MIC: Staphylococcus aureus, read-out: MIC
Procedure: The bacterial strains used in this testing were part of the microbiological culture collection housed at AstraZeneca R&D Boston (AstraZeneca Research Collection, designated ARC). The panel of bacterial isolates used for this testing was comprised of five CLSI QC reference strains and the remainder were either recent clinical isolates expressing β-lactamases or isolates from the primary bacterial screening panels.
MIC values were determined using the CLSI broth microdilution methodology with slight variation. Stock compound mother plates were prepared and used to spot 2 μL aliquots of serial 2-fold drug dilutions to columns 1-11 of 96-well daughter plates using a Perkin-Elmer MiniTrak™ MultiPosition dispenser. […] An inoculum volume of 100 μL (5×10E^5 CFU/mL) in CAMHB containing 0, 1, 2.5, 5, or 10% pulmonary surfactant was added using a multichannel Finnpipette® to each well of the 96-well plate.
The minimum inhibitory concentration (MIC) values against each organism/drug combination were determined using broth microdilution methodology according to CLSI guidelines. The recommended reference bacterial strains for each test group and reference compounds were incorporated into each test. For Gram-negatives, the reference bacterial strains were Escherichia coli ATCC 25922, E. coli ATCC 35218, Klebsiella pneumoniae ATCC 700603, and Pseudomonas aeruginosa ATCC 27853. Staphylococcus aureus ATCC 29213 was the reference bacterial strain for the Gram-positives.
MIC values for individual isolates were read visually. The MICs for each compound or combination in pulmonary surfactant was compared to the compound or combination tested in CAMHB alone.

- MIC (S. aureus [1]; Staphylococcus aureus, isolate 22 S. aureus Basal MICs, read-out: MIC): 2 µg/mL
- MIC (S. aureus [1]; Staphylococcus aureus, isolate 23 S. aureus Basal MICs, Penicillinase+, read-out: MIC): 2 µg/mL
- MIC (S. aureus [1]; Staphylococcus aureus, isolate 24 S. aureus Basal MICs, Penicillinase+, read-out: MIC): 2 µg/mL
- MIC (E. faecalis; isolate 25 E. faecalis Basal MICs, read-out: MIC): 1 µg/mL
- MIC (E. faecalis; isolate 26 E. faecalis Basal MICs, read-out: MIC): 2 µg/mL
- MIC (E. faecalis; isolate 27 E. faecalis Basal MICs, read-out: MIC): 2 µg/mL
Compound: CC(=O)NC[C@H]1CN(c2ccc(N3CCOCC3)c(F)c2)C(=O)O1 [Linezolid]

Compound: Colistin
- MIC (E. coli; isolate 4 E. coli Basal MICs): 0.25 µg/mL
- MIC (E. coli; isolate 5 E. coli CTX-M-15): 0.5 µg/mL
- MIC (E. coli; isolate 6 E. coli TEM-4): 0.25 µg/mL
- MIC (E. coli; isolate 7 E. coli SHV-12): 0.5 µg/mL
- MIC (E. coli; isolate 8 E. coli SHV-2): 0.25 µg/mL
- MIC (E. cloacae; isolate 1 E. cloacae Basal MICs): 0.25 µg/mL
- MIC (E. cloacae; isolate 2 E. cloacae Derepressed AmpC): 0.25 µg/mL
- MIC (E. cloacae; isolate 3 E. cloacae Derepressed AmpC): 0.25 µg/mL
- MIC (K. pneumoniae; isolate 9 K. pneumoniae Basal MICs): 0.25 µg/mL
- MIC (K. pneumoniae; isolate 10 K. pneumoniae TEM-4): 0.5 µg/mL
- MIC (K. pneumoniae; isolate 11 K. pneumoniae CTX-M-15): 0.25 µg/mL
- MIC (K. pneumoniae; isolate 12 K. pneumoniae SHV-12): 0.25 µg/mL
- MIC (K. pneumoniae; isolate 13 K. pneumoniae KPC-3): 0.25 µg/mL
- MIC (K. pneumoniae; isolate 14 K. pneumoniae KPC-3): 0.25 µg/mL
- MIC (K. pneumoniae; isolate 15 K. pneumoniae KPC-2): 0.25 µg/mL
- MIC (P. aeruginosa; isolate 16 P. aeruginosa Basal MICs): 1 µg/mL
- MIC (P. aeruginosa; isolate 17 P. aeruginosa Derepressed AmpC): 0.5 µg/mL
- MIC (P. aeruginosa; isolate 18 P. aeruginosa Derepressed AmpC): 1 µg/mL
- MIC (P. aeruginosa; isolate 19 P. aeruginosa PER): 1 µg/mL
- MIC (P. aeruginosa; isolate 20 P. aeruginosa KPC-2): 1 µg/mL
- MIC (P. aeruginosa; isolate 21 P. aeruginosa KPC-2): 2 µg/mL

- MIC increase in pulmonary surfactant (S. aureus [2]; S. aureus, 1% pulmonary surfactant): 32 fold
- MIC (S. aureus [2]; ATCC29213, S. aureus ARC12 (CLSI QC strain, ATCC 29213), surfactant 0%): 0.5 µg/mL
- MIC (S. aureus [2]; ATCC29213, S. aureus ARC12 (CLSI QC strain, ATCC 29213), surfactant 1%): 16 µg/mL
- MIC (S. aureus [2]; ATCC29213, S. aureus ARC12 (CLSI QC strain, ATCC 29213), surfactant 2.5%): 64 µg/mL
- MIC (S. aureus [2]; ATCC29213, S. aureus ARC12 (CLSI QC strain, ATCC 29213), surfactant 5%): > 64 µg/mL
- MIC (S. aureus [2]; ATCC29213, S. aureus ARC12 (CLSI QC strain, ATCC 29213), surfactant 10%): 64 µg/mL
- MIC (S. aureus [2]; MRSA, S. aureus ARC516 (MRSA, quinolone-resistant), surfactant 0%): 0.5 µg/mL
- MIC (S. aureus [2]; MRSA, S. aureus ARC516 (MRSA, quinolone-resistant), surfactant 1%): 16 µg/mL
- MIC (S. aureus [2]; MRSA, S. aureus ARC516 (MRSA, quinolone-resistant), surfactant 2.5%): 64 µg/mL
- MIC (S. aureus [2]; MRSA, S. aureus ARC516 (MRSA, quinolone-resistant), surfactant 5%): > 64 µg/mL
- MIC (S. aureus [2]; MRSA, S. aureus ARC516 (MRSA, quinolone-resistant), surfactant 10%): > 64 µg/mL
Compound: CCCCCCCCCC(=O)N[C@@H](Cc1c[nH]c2ccccc12)C(=O)N[C@H](CC(N)=O)C(=O)N[C@@H](CC(=O)O)C(=O)N[C@@H]1C(=O)NCC(=O)N[C@@H](CCCN)C(=O)N[C@@H](CC(=O)O)C(=O)N[C@H](C)C(=O)N[C@@H](CC(=O)O)C(=O)NCC(=O)N[C@H](CO)C(=O)N[C@@H]([C@H](C)CC(=O)O)C(=O)N[C@@H](CC(=O)c2ccccc2N)C(=O)O[C@@H]1C [daptomycin]

Compound: CN[C@H](CC(C)C)C(=O)N[C@H]1C(=O)N[C@@H](CC(N)=O)C(=O)N[C@H]2C(=O)N[C@H]3C(=O)N[C@H](C(=O)N[C@H](C(=O)O)c4cc(O)cc(O)c4-c4cc3ccc4O)[C@H](O)c3ccc(c(Cl)c3)Oc3cc2cc(c3O[C@@H]2O[C@H](CO)[C@@H](O)[C@H](O)[C@H]2O[C@H]2C[C@](C)(N)[C@H](O)[C@H](C)O2)Oc2ccc(cc2Cl)[C@H]1O [Vancomycin]
- MIC (S. aureus [1]; Staphylococcus aureus): 1 µg/mL
- MIC (S. aureus [1]; isolate 23 S. aureus Basal MICs, Penicillinase+): 1 µg/mL
- MIC (S. aureus [1]; isolate 24 S. aureus Basal MICs, Penicillinase+): 1 µg/mL
- MIC (E. faecalis; isolate 25 E. faecalis Basal MICs): 1 µg/mL
- MIC (E. faecalis; isolate 26 E. faecalis Basal MICs): 2 µg/mL
- MIC (E. faecalis; isolate 27 E. faecalis Basal MICs): 2 µg/mL
